Numbers after ± are expanded uncertainties.
Test: xn = mol fraction of the nth substance listed
Settings: Gas, Oscillating disk viscometry

CCN(CC)CC [triethylamine] + CO
Settings	viscosity [mPa·s]
296.97 K, Mass density=2.1808 kg/m3, x2 = 0.4998	0.007913 ± 0.00034
297.25 K, Mass density=0.6964 kg/m3, x2 = 0.4996	0.007853 ± 0.00034
298.22 K, Mass density=1.2804 kg/m3, x2 = 0.3322	0.007476 ± 0.00033
298.82 K, Mass density=0.6964 kg/m3, x2 = 0.4996	0.007887 ± 0.00034
298.92 K, Mass density=1.1039 kg/m3, x2 = 0.4982	0.007914 ± 0.00034
299.02 K, Mass density=0.6482 kg/m3, x2 = 0.4999	0.007865 ± 0.00034
310.39 K, Mass density=0.6964 kg/m3, x2 = 0.4996	0.008055 ± 0.00036
310.51 K, Mass density=2.1808 kg/m3, x2 = 0.4998	0.008259 ± 0.00035
310.56 K, Mass density=0.6482 kg/m3, x2 = 0.4999	0.008025 ± 0.00034
310.62 K, Mass density=1.1039 kg/m3, x2 = 0.4982	0.008147 ± 0.00034
310.75 K, Mass density=1.5253 kg/m3, x2 = 0.5035	0.008235 ± 0.00035
311.73 K, Mass density=1.2804 kg/m3, x2 = 0.3322	0.007712 ± 0.00033
324.1 K, Mass density=2.1808 kg/m3, x2 = 0.4998	0.008539 ± 0.00035
324.27 K, Mass density=1.2804 kg/m3, x2 = 0.3322	0.007852 ± 0.00034
324.64 K, Mass density=0.6964 kg/m3, x2 = 0.4996	0.008338 ± 0.00035
325.29 K, Mass density=1.1039 kg/m3, x2 = 0.4982	0.008337 ± 0.00035
325.44 K, Mass density=0.6482 kg/m3, x2 = 0.4999	0.008367 ± 0.00035
326.59 K, Mass density=1.5253 kg/m3, x2 = 0.5035	0.008476 ± 0.00035
337.6 K, Mass density=1.2804 kg/m3, x2 = 0.3322	0.008072 ± 0.00034
338.04 K, Mass density=1.5253 kg/m3, x2 = 0.5035	0.008626 ± 0.00036
338.18 K, Mass density=0.6482 kg/m3, x2 = 0.4999	0.008693 ± 0.00036
338.18 K, Mass density=1.1039 kg/m3, x2 = 0.4982	0.008632 ± 0.00036
338.37 K, Mass density=0.6964 kg/m3, x2 = 0.4996	0.008695 ± 0.00036
338.58 K, Mass density=2.1808 kg/m3, x2 = 0.4998	0.00869 ± 0.00036
352.3 K, Mass density=0.6964 kg/m3, x2 = 0.4996	0.009039 ± 0.00036
352.47 K, Mass density=0.6482 kg/m3, x2 = 0.4999	0.009053 ± 0.00037
352.57 K, Mass density=1.1039 kg/m3, x2 = 0.4982	0.009009 ± 0.00036
352.83 K, Mass density=2.1808 kg/m3, x2 = 0.4998	0.008949 ± 0.00036
352.91 K, Mass density=1.2804 kg/m3, x2 = 0.3322	0.008441 ± 0.00035
353.02 K, Mass density=1.5253 kg/m3, x2 = 0.5035	0.009026 ± 0.00036
365.7 K, Mass density=2.1808 kg/m3, x2 = 0.4998	0.009281 ± 0.00038
365.96 K, Mass density=1.5253 kg/m3, x2 = 0.5035	0.009349 ± 0.00037
366.02 K, Mass density=1.2804 kg/m3, x2 = 0.3322	0.008766 ± 0.00036
366.12 K, Mass density=1.5253 kg/m3, x2 = 0.5035	0.009363 ± 0.00037
366.13 K, Mass density=0.6482 kg/m3, x2 = 0.4999	0.009411 ± 0.00038
366.22 K, Mass density=1.2804 kg/m3, x2 = 0.3322	0.008747 ± 0.00036
366.24 K, Mass density=0.6964 kg/m3, x2 = 0.4996	0.009388 ± 0.00037
366.29 K, Mass density=1.1039 kg/m3, x2 = 0.4982	0.009353 ± 0.00037
366.41 K, Mass density=2.1808 kg/m3, x2 = 0.4998	0.009307 ± 0.00038
366.96 K, Mass density=0.6482 kg/m3, x2 = 0.4999	0.009415 ± 0.00038
367.89 K, Mass density=1.1039 kg/m3, x2 = 0.4982	0.009381 ± 0.00037
379.75 K, Mass density=1.2804 kg/m3, x2 = 0.3322	0.009075 ± 0.00037
380.83 K, Mass density=2.1808 kg/m3, x2 = 0.4998	0.009681 ± 0.00038
381.57 K, Mass density=0.6482 kg/m3, x2 = 0.4999	0.009793 ± 0.00038
381.81 K, Mass density=1.5253 kg/m3, x2 = 0.5035	0.00977 ± 0.00038
381.91 K, Mass density=1.1039 kg/m3, x2 = 0.4982	0.009758 ± 0.00038
383.76 K, Mass density=0.6964 kg/m3, x2 = 0.4996	0.009828 ± 0.00039
394.29 K, Mass density=2.1808 kg/m3, x2 = 0.4998	0.01004 ± 0.00039
394.84 K, Mass density=1.5253 kg/m3, x2 = 0.5035	0.01009 ± 0.00039
394.95 K, Mass density=0.6964 kg/m3, x2 = 0.4996	0.0101 ± 0.00039
394.98 K, Mass density=1.2804 kg/m3, x2 = 0.3322	0.009437 ± 0.00037
395.04 K, Mass density=0.6482 kg/m3, x2 = 0.4999	0.01012 ± 0.00039
395.34 K, Mass density=1.1039 kg/m3, x2 = 0.4982	0.01008 ± 0.00039
408.74 K, Mass density=1.2804 kg/m3, x2 = 0.3322	0.009753 ± 0.00038
409.01 K, Mass density=1.1039 kg/m3, x2 = 0.4982	0.01044 ± 0.0004
409.18 K, Mass density=2.1808 kg/m3, x2 = 0.4998	0.01042 ± 0.0004
409.61 K, Mass density=0.6482 kg/m3, x2 = 0.4999	0.0105 ± 0.0004
410.61 K, Mass density=1.5253 kg/m3, x2 = 0.5035	0.0105 ± 0.0004
410.75 K, Mass density=0.6964 kg/m3, x2 = 0.4996	0.01052 ± 0.0004
422.83 K, Mass density=1.2804 kg/m3, x2 = 0.3322	0.01008 ± 0.00039
423.21 K, Mass density=1.5253 kg/m3, x2 = 0.5035	0.01081 ± 0.00041
423.31 K, Mass density=0.6964 kg/m3, x2 = 0.4996	0.01083 ± 0.00041
423.64 K, Mass density=2.1808 kg/m3, x2 = 0.4998	0.01078 ± 0.00041
423.81 K, Mass density=1.1039 kg/m3, x2 = 0.4982	0.01081 ± 0.00041
425.55 K, Mass density=0.6482 kg/m3, x2 = 0.4999	0.01091 ± 0.00041
436.79 K, Mass density=1.5253 kg/m3, x2 = 0.5035	0.01116 ± 0.00041
436.89 K, Mass density=2.1808 kg/m3, x2 = 0.4998	0.01111 ± 0.00041
436.91 K, Mass density=0.6964 kg/m3, x2 = 0.4996	0.01117 ± 0.00042
437.47 K, Mass density=1.1039 kg/m3, x2 = 0.4982	0.01116 ± 0.00041
438.27 K, Mass density=0.6482 kg/m3, x2 = 0.4999	0.01122 ± 0.00042
441.21 K, Mass density=1.2804 kg/m3, x2 = 0.3322	0.01053 ± 0.0004
451.54 K, Mass density=1.2804 kg/m3, x2 = 0.3322	0.01076 ± 0.0004
451.6 K, Mass density=1.5253 kg/m3, x2 = 0.5035	0.01154 ± 0.00042
451.74 K, Mass density=1.1039 kg/m3, x2 = 0.4982	0.01151 ± 0.00042
452.02 K, Mass density=2.1808 kg/m3, x2 = 0.4998	0.01151 ± 0.00042
452.69 K, Mass density=0.6964 kg/m3, x2 = 0.4996	0.01157 ± 0.00043
453.25 K, Mass density=0.6482 kg/m3, x2 = 0.4999	0.01161 ± 0.00043
466.65 K, Mass density=2.1808 kg/m3, x2 = 0.4998	0.01188 ± 0.00043
466.76 K, Mass density=1.5253 kg/m3, x2 = 0.5035	0.01191 ± 0.00043
467.26 K, Mass density=1.1039 kg/m3, x2 = 0.4982	0.0119 ± 0.00043
467.4 K, Mass density=1.2804 kg/m3, x2 = 0.3322	0.01113 ± 0.00041
467.62 K, Mass density=0.6482 kg/m3, x2 = 0.4999	0.01197 ± 0.00043
480.98 K, Mass density=1.2804 kg/m3, x2 = 0.3322	0.01145 ± 0.00042
481.28 K, Mass density=1.1039 kg/m3, x2 = 0.4982	0.01225 ± 0.00044
481.51 K, Mass density=2.1808 kg/m3, x2 = 0.4998	0.01224 ± 0.00044
481.53 K, Mass density=0.6964 kg/m3, x2 = 0.4996	0.01229 ± 0.00044
482.14 K, Mass density=0.6482 kg/m3, x2 = 0.4999	0.01231 ± 0.00044
482.73 K, Mass density=1.5253 kg/m3, x2 = 0.5035	0.01229 ± 0.00044
494.94 K, Mass density=0.6964 kg/m3, x2 = 0.4996	0.01263 ± 0.00045
495.26 K, Mass density=1.2804 kg/m3, x2 = 0.3322	0.01179 ± 0.00043
495.28 K, Mass density=2.1808 kg/m3, x2 = 0.4998	0.0126 ± 0.00045
495.78 K, Mass density=1.5253 kg/m3, x2 = 0.5035	0.01264 ± 0.00045
496.37 K, Mass density=0.6482 kg/m3, x2 = 0.4999	0.01269 ± 0.00045
497.66 K, Mass density=1.1039 kg/m3, x2 = 0.4982	0.01267 ± 0.00045
